Here are results for 15 compounds from ChEMBL document CHEMBL2346627, “Synthesis and cytotoxicity evaluation of oleanolic acid derivatives” (Bioorg Med Chem Lett, 2013).

Activity calls are given as the source filed them. No cut-off for these calls is given here.

In assay [1] the test system is BGC-823. In words: Cytotoxicity against human BGC823 cells by MTT assay. Type of assay: functional, cell-based.
For assay [2], the system named is A549. In words: Cytotoxicity against human A549 cells by MTT assay. Type of assay: functional, cell-based.
The subject of assay [3] is MCF7. In words: Cytotoxicity against human MCF7 cells by MTT assay. Type of assay: functional, cell-based.
Assay [4] relates to PC-3. Description: Cytotoxicity against human PC3 cells by MTT assay. Type of assay: functional, cell-based.
Assay [5] deals with PC-3. In words: Ratio of oleanolic acid IC50 to compound IC50 for human PC3 cells. Type of assay: functional.
The test system of assay [6] is PC-3. Description: Ratio of adriamycin IC50 to compound IC50 for human PC3 cells. Type of assay: functional.
The subject of assay [7] is MCF7. Description: Ratio of oleanolic acid IC50 to compound IC50 for human MCF7 cells. Type of assay: functional.
For assay [8], the system named is HepG2. Description: Cytotoxicity against human HepG2 cells. Type of assay: functional, cell-based.

For the compound `CC1(C)CC[C@]2(C(=O)O)CC[C@]3(C)C(=CC[C@@H]4[C@@]5(C)CC[C@H](OC(=O)CN6CCCC6)C(C)(C)[C@@H]5CC[C@]43C)[C@@H]2C1`, the IC50 was 87.2 µM in assay [1], 8.53 µM in assay [2], 12.9 µM in assay [3] and 28.3 µM in assay [4].
On the same counts, the results for `CC1(C)CC[C@]2(C(=O)OCC(=O)O)CC[C@]3(C)C(=CC[C@@H]4[C@@]5(C)CC[C@H](OC(=O)CCC(=O)O)C(C)(C)[C@@H]5CC[C@]43C)[C@@H]2C1` are 13.4 µM, 11.9 µM, 805 µM and 7.72 µM.
On the same counts, the results for `CC1(C)CC[C@]2(C(=O)OCC(=O)O)CC[C@]3(C)C(=CC[C@@H]4[C@@]5(C)CC[C@H](OC(=O)C[C@H](O)C(=O)O)C(C)(C)[C@@H]5CC[C@]43C)[C@@H]2C1` are 9.36 µM, 19.3 µM, 35.1 µM and 8.07 µM.
Compound `COc1cccc2c1C(=O)c1c(O)c3c(c(O)c1C2=O)C[C@@](O)(C(=O)CO)C[C@@H]3O[C@H]1C[C@H](N)[C@H](O)[C@H](C)O1` [DOXORUBICIN] came in with a half-inhibitory concentration (IC50) in assay [3] of 1.65 µM.
Regarding `CC1(C)CC[C@]2(C(=O)O)CC[C@]3(C)C(=CC[C@@H]4[C@@]5(C)CC[C@H](OC(=O)CCC(=O)NCCS(=O)(=O)O)C(C)(C)[C@@H]5CC[C@]43C)[C@@H]2C1`, the “Ratio IC50” value in assay [5] is listed as 17. The IC50 was 7.32 µM in assay [1], 1.31 µM in assay [2], 5.19 µM in assay [3] and 0.83 µM in assay [4].
Regarding `CC1(C)CC[C@]2(C(=O)O)CC[C@]3(C)C(=CC[C@@H]4[C@@]5(C)CC[C@H](OC(=O)Cn6ccnc6)C(C)(C)[C@@H]5CC[C@]43C)[C@@H]2C1`, the IC50 in assay [1] worked out at 16.3 µM; in assay [2] it was 16.9 µM; in assay [3], 894 µM; in assay [4] it was 57.5 µM.
Take `CC1(C)CC[C@]2(C(=O)O)CC[C@]3(C)C(=CC[C@@H]4[C@@]5(C)CC[C@H](OC(=O)CCn6ccnc6)C(C)(C)[C@@H]5CC[C@]43C)[C@@H]2C1`: the IC50 in assay [1] amounted to 76.3 µM; in assay [2], 0.22 µM; in assay [4] it was 50.5 µM. In addition, the inhibition result in assay [3] was “inactive”.
`CC1(C)CC[C@]2(C(=O)O)CC[C@]3(C)C(=CC[C@@H]4[C@@]5(C)CC[C@H](OC(=O)CCC(=O)O)C(C)(C)[C@@H]5CC[C@]43C)[C@@H]2C1` [OLEANOLIC ACID 3-O-SUCCINATE]: the IC50 stood at 5.59 µM in assay [1], 6.57 µM in assay [2], 60.7 µM in assay [3] and 7.11 µM in assay [4].
As for `CC1(C)CC[C@]2(C(=O)O)CC[C@]3(C)C(=CC[C@@H]4[C@@]5(C)CC[C@H](OC(=O)C[C@H](O)C(=O)O)C(C)(C)[C@@H]5CC[C@]43C)[C@@H]2C1`, the “Ratio IC50” value in assay [5] was 17; in assay [6], 1.7. Also, the 50% inhibitory concentration (IC50) worked out at 4.18 µM in assay [1], 0.71 µM in assay [2], 16.2 µM in assay [3] and 0.39 µM in assay [4].
As for `CC1(C)CC[C@]2(C(=O)OCC(=O)O)CC[C@]3(C)C(=CC[C@@H]4[C@@]5(C)CC[C@H](OC(=O)CCC(=O)NCCS(=O)(=O)O)C(C)(C)[C@@H]5CC[C@]43C)[C@@H]2C1`, the half-maximal inhibitory concentration (IC50) in assay [1] was 84.5 µM; in assay [2], 268 µM; in assay [3], 51.7 µM; in assay [4], 10.4 µM.
For the compound `CC1(C)CC[C@]2(C(=O)O)CC[C@]3(C)C(=CC[C@@H]4[C@@]5(C)CC[C@H](OC(=O)CCN6CCCC6)C(C)(C)[C@@H]5CC[C@]43C)[C@@H]2C1`, in assay [7], the “Ratio IC50” value is on record as 17. Further, the IC50 came out at 27.2 µM in assay [1], 6.12 µM in assay [2], 1.98 µM in assay [3] and 5.45 µM in assay [4].
Take `COC(=O)[C@]12CCC(C)(C)C[C@@H]1C1=CC[C@@H]3[C@@]4(C)CC[C@H](N)C(C)(C)[C@@H]4CC[C@@]3(C)[C@]1(C)CC2`: 4 µM corresponded to half-maximal inhibition in assay [8] (IC50). That is a single-digit micromolar value.
As for `CC1(C)CC[C@]2(C(=O)O)CC[C@]3(C)C(=CC[C@@H]4[C@@]5(C)CC[C@H](OC(=O)CCN6CCOCC6)C(C)(C)[C@@H]5CC[C@]43C)[C@@H]2C1`, the half-maximal inhibitory concentration (IC50) is 81.9 µM in assay [1], 728 µM in assay [2], 718 µM in assay [3] and 6.38 µM in assay [4].
On the same counts, the results for `CC1(C)CC[C@]2(C(=O)O)CC[C@]3(C)C(=CC[C@@H]4[C@@]5(C)CC[C@H](OC(=O)CN6CCOCC6)C(C)(C)[C@@H]5CC[C@]43C)[C@@H]2C1` are 24.5 µM, 8.27 µM, 14.9 µM and 6.29 µM.
On the same counts, the results for `CC1(C)CC[C@]2(C(=O)O)CC[C@]3(C)C(=CC[C@@H]4[C@@]5(C)CC[C@H](O)C(C)(C)[C@@H]5CC[C@]43C)[C@@H]2C1` [OLEANOLIC_ACID] are 2.59 µM, 0.39 µM, 35.4 µM and 6.51 µM.
